# From the supplement of paper PMC10307832
# Tests used:
# Assay in all cases: relative viability (nuclei count vs DMSO), 5 days (fraction); higher = more cells survive
# NCI-H1395 = test system: NCI-H1395
# Summary of the method: (§1)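 Relative viability was taken as the ratio of nuclei in treated wells to nuclei in vehicle wells. Lung cancer cell lines in 1536-well plates received compounds by pin tool one day after seeding, either one drug alone or a fixed anchor-drug dose plus five library-drug doses (not always all listed) in √10 steps. Nuclei were counted on 4× images after 5 days of treatment, and values are medians of duplicate plates.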
# SK-LU-1 = test system: SK-LU-1
# Summary of the method: as §1
# NCI-H838 = test system: NCI-H838
# Summary of the method: as §1
# NCI-H1355 = test system: NCI-H1355
# Summary of the method: as §1
# SW 1573 = test system: SW 1573
# Summary of the method: as §1
# NCI-H2126 = test system: NCI-H2126
# Summary of the method: as §1
# NCI-H322M = test system: NCI-H322M
# Summary of the method: as §1
# CAL-12T = test system: CAL-12T
# Summary of the method: as §1
# LCLC-97TM1 = test system: LCLC-97TM1
# Summary of the method: as §1
# NCI-H2347 = test system: NCI-H2347
# Summary of the method: as §1
# BEN = test system: BEN
# Summary of the method: as §1
# NCI-H1944 = test system: NCI-H1944
# Summary of the method: as §1
# 201T = test system: 201T
# Summary of the method: as §1
# NCI-H3122 = test system: NCI-H3122
# Summary of the method: as §1
# HOP-62 = test system: HOP-62
# Summary of the method: as §1
# HCC-78 = test system: HCC-78
# Summary of the method: as §1
# NCI-H1793 = test system: NCI-H1793
# Summary of the method: as §1
# LOU-NH91 = test system: LOU-NH91
# Summary of the method: as §1
# NCI-H1651 = test system: NCI-H1651
# Summary of the method: as §1
# NCI-H441 = test system: NCI-H441
# Summary of the method: as §1
# NCI-H1915 = test system: NCI-H1915
# Summary of the method: as §1
structure (smiles),measurement,setting,value
Cc1cn(-c2cc(NC(=O)c3ccc(C)c(Nc4nccc(-c5cccnc5)n4)c3)cc(C(F)(F)F)c2)cn1 [Nilotinib] + CC1(C)CCC(c2ccc(Cl)cc2)=C(CN2CCN(c3ccc(C(=O)NS(=O)(=O)c4ccc(N[C@H](CCN5CCOCC5)CSc5ccccc5)c(S(=O)(=O)C(F)(F)F)c4)cc3)CC2)C1 [Navitoclax] (partner 0.5 µM),relative viability,NCI-H1395; first compound 0.001 µM,1.03
same,relative viability,NCI-H1395; first compound 0.003162 µM,0.815
same,relative viability,NCI-H1395; first compound 0.01 µM,1.1
same,relative viability,NCI-H1395; first compound 0.03162 µM,1.11
same,relative viability,NCI-H1395; first compound 0.1 µM,1.05
same,relative viability,SK-LU-1; first compound 0.001 µM,0.703
same,relative viability,SK-LU-1; first compound 0.003162 µM,1.17
same,relative viability,SK-LU-1; first compound 0.01 µM,1.14
same,relative viability,SK-LU-1; first compound 0.03162 µM,0.582
same,relative viability,SK-LU-1; first compound 0.1 µM,0.827
same,relative viability,NCI-H838; first compound 0.001 µM,1.09
same,relative viability,NCI-H838; first compound 0.003162 µM,1.42
same,relative viability,NCI-H838; first compound 0.01 µM,1.54
same,relative viability,NCI-H838; first compound 0.03162 µM,1.05
same,relative viability,NCI-H838; first compound 0.1 µM,1.15
same,relative viability,NCI-H1355; first compound 0.001 µM,1
same,relative viability,NCI-H1355; first compound 0.003162 µM,1.14
same,relative viability,NCI-H1355; first compound 0.01 µM,1.12
same,relative viability,NCI-H1355; first compound 0.03162 µM,0.928
same,relative viability,NCI-H1355; first compound 0.1 µM,0.893
same,relative viability,SW 1573; first compound 0.001 µM,1.05
same,relative viability,SW 1573; first compound 0.003162 µM,1.23
same,relative viability,SW 1573; first compound 0.01 µM,1.14
same,relative viability,SW 1573; first compound 0.03162 µM,0.792
same,relative viability,SW 1573; first compound 0.1 µM,1.01
same,relative viability,NCI-H2126; first compound 0.001 µM,0.861
same,relative viability,NCI-H2126; first compound 0.003162 µM,0.891
same,relative viability,NCI-H2126; first compound 0.01 µM,0.89
same,relative viability,NCI-H2126; first compound 0.03162 µM,0.846
same,relative viability,NCI-H2126; first compound 0.1 µM,0.82
same,relative viability,NCI-H322M; first compound 0.001 µM,1.09
same,relative viability,NCI-H322M; first compound 0.003162 µM,1.51
same,relative viability,NCI-H322M; first compound 0.03162 µM,0.954
same,relative viability,NCI-H322M; first compound 0.1 µM,1.16
same,relative viability,CAL-12T; first compound 0.003162 µM,1.17
same,relative viability,CAL-12T; first compound 0.01 µM,1.17
same,relative viability,CAL-12T; first compound 0.03162 µM,1.02
same,relative viability,CAL-12T; first compound 0.1 µM,0.956
same,relative viability,LCLC-97TM1; first compound 0.001 µM,0.322
same,relative viability,LCLC-97TM1; first compound 0.003162 µM,0.425
same,relative viability,LCLC-97TM1; first compound 0.01 µM,0.478
same,relative viability,LCLC-97TM1; first compound 0.03162 µM,0.445
same,relative viability,LCLC-97TM1; first compound 0.1 µM,0.379
same,relative viability,NCI-H2347; first compound 0.001 µM,0.81
same,relative viability,NCI-H2347; first compound 0.003162 µM,0.959
same,relative viability,NCI-H2347; first compound 0.01 µM,1.05
same,relative viability,NCI-H2347; first compound 0.03162 µM,0.662
same,relative viability,NCI-H2347; first compound 0.1 µM,0.695
same,relative viability,BEN; first compound 0.001 µM,0.0648
same,relative viability,BEN; first compound 0.003162 µM,0.0542
same,relative viability,BEN; first compound 0.01 µM,0.0592
same,relative viability,BEN; first compound 0.1 µM,0.0654
same,relative viability,NCI-H1944; first compound 0.001 µM,1.03
same,relative viability,NCI-H1944; first compound 0.003162 µM,1.13
same,relative viability,NCI-H1944; first compound 0.01 µM,1.22
same,relative viability,NCI-H1944; first compound 0.03162 µM,1.12
same,relative viability,NCI-H1944; first compound 0.1 µM,0.987
same,relative viability,201T; first compound 0.001 µM,1.22
same,relative viability,201T; first compound 0.003162 µM,1.29
same,relative viability,201T; first compound 0.01 µM,1.25
same,relative viability,201T; first compound 0.1 µM,1.21
same,relative viability,NCI-H3122; first compound 0.001 µM,1.09
same,relative viability,NCI-H3122; first compound 0.003162 µM,1.12
same,relative viability,NCI-H3122; first compound 0.01 µM,1.09
same,relative viability,NCI-H3122; first compound 0.1 µM,0.831
same,relative viability,HOP-62; first compound 0.001 µM,0.832
same,relative viability,HOP-62; first compound 0.003162 µM,1.05
same,relative viability,HOP-62; first compound 0.01 µM,1.24
same,relative viability,HOP-62; first compound 0.03162 µM,0.94
same,relative viability,HOP-62; first compound 0.1 µM,0.454
same,relative viability,HCC-78; first compound 0.001 µM,0.876
same,relative viability,HCC-78; first compound 0.003162 µM,0.692
same,relative viability,HCC-78; first compound 0.01 µM,0.945
same,relative viability,HCC-78; first compound 0.03162 µM,0.724
same,relative viability,HCC-78; first compound 0.1 µM,0.737
same,relative viability,NCI-H1793; first compound 0.003162 µM,0.452
same,relative viability,NCI-H1793; first compound 0.01 µM,0.587
same,relative viability,NCI-H1793; first compound 0.03162 µM,0.385
same,relative viability,NCI-H1793; first compound 0.1 µM,0.275
same,relative viability,LOU-NH91; first compound 0.001 µM,0.644
same,relative viability,LOU-NH91; first compound 0.003162 µM,0.685
same,relative viability,LOU-NH91; first compound 0.01 µM,0.846
same,relative viability,LOU-NH91; first compound 0.03162 µM,0.608
same,relative viability,LOU-NH91; first compound 0.1 µM,0.658
same,relative viability,NCI-H1651; first compound 0.001 µM,1.05
same,relative viability,NCI-H1651; first compound 0.003162 µM,1.56
same,relative viability,NCI-H1651; first compound 0.01 µM,1.43
same,relative viability,NCI-H1651; first compound 0.03162 µM,0.782
same,relative viability,NCI-H1651; first compound 0.1 µM,1.21
same,relative viability,NCI-H441; first compound 0.001 µM,0.499
same,relative viability,NCI-H441; first compound 0.003162 µM,0.667
same,relative viability,NCI-H441; first compound 0.01 µM,0.568
same,relative viability,NCI-H441; first compound 0.1 µM,0.493
same,relative viability,NCI-H1915; first compound 0.001 µM,0.764
same,relative viability,NCI-H1915; first compound 0.003162 µM,0.813
same,relative viability,NCI-H1915; first compound 0.01 µM,0.807
same,relative viability,NCI-H1915; first compound 0.03162 µM,0.751
same,relative viability,NCI-H1915; first compound 0.1 µM,0.781
